Here are results for eight molecules from ChEMBL document CHEMBL1141133, “Synthesis of a resveratrol analogue with high ceramide-mediated proapoptotic activity on human breast cancer cells” (J Med Chem, 2005).

The assay concerns MDA-MB-231. The assay is described as follows: Inhibitory concentration required for antiproliferative activity against human MDA-MB-231 cells. In kind it is functional, cell-based.
As usually defined, the IC50 is the concentration needed to halve the response being measured. The molecule `COc1ccc2cc(-c3cc(O)cc(O)c3)ccc2c1` came in with a half-maximal inhibitory concentration (IC50) of 28.3 µM. In turn, `COc1cc(OC)cc(-c2ccc3cc(OC)ccc3c2)c1` came in with an IC50 of 45.1 µM. For `Oc1cc(O)cc(-c2ccc3cc(O)ccc3c2)c1` the value was 12.7 µM; for `COc1cc(OC)cc(-c2ccc3cc(O)ccc3c2)c1`, 7.2 µM; for `COc1cc(/C=C/c2ccc(O)cc2)cc(OC)c1` [PTEROSTILBENE], 10 µM. The same measure for `COc1ccc(/C=C/c2cc(O)cc(O)c2)cc1` [RESVERATROL 4'-METHYL ETHER]: over 50 µM; for `Oc1ccc(/C=C/c2cc(O)cc(O)c2)cc1` [RESVERATROL]: 20.5 µM; for `COc1ccc(/C=C/c2cc(OC)cc(OC)c2)cc1` [TRISMETHOXYRESVERATROL]: 1.2 µM.
